Experimental findings from patent publication US8445501B2, “Substituted 7-carboxamido-pyrrolo[3,2-d]pyrimidines” (Takeda GmbH, priority 2008, dated 2013) are described below.

This assay addresses T1, human PDE5 (Homo sapiens, UniProt O76074).
T1 construct: from tissue; host or cells: platelets from fresh blood of human donors (lysate, 10,000 g supernatant)
The assay is described as follows: Inhibition of the type 5 phosphodiesterase (PDE5) activity, modified SPA test with platelet lysate. It counts as biochemical. The note with it: PDE5 from human platelet lysate, 0.5 μM cGMP. As to the method: Method for Measuring Inhibition of the Type 5 Phosphodiesterase (PDE5) Activity:
As a source for human PDE5, platelets are used. For that purpose, 150 ml fresh blood from human donors anticoagulated with citrate [final concentration 0.3% (w/v)] is centrifuged at 200 g for 10 min to obtain the so-called platelet-rich-plasma (PRP) as a supernatant. 1/10 volume of ACD solution (85 mM Na3-citrate, 111 mM D-glucose, 71 mM citric acid, pH 4.4) is added to 9/10 volume of PRP. After centrifugation (1,400 g, 10 min) the cell pellet is resuspended in 3 ml homogenization buffer (NaCl 140 mM, KCl 3.8 mM, EGTA (ethylene glycol tetraacetic acid) 1 mM, MgCl2 1 mM, Tris-HCl 20 mM, beta-mercaptoethanol 1 mM, pH 8.2) plus protease-inhibitor mix giving rise to the final concentrations of 0.5 mM Pefablock (Roche), 10 μM Leupeptin, 5 μM Trypsininhibitor, 2 mM Benzamidin and 10 μM Pepstatin A. The suspension is sonified and thereafter centrifuged for 15 min at 10,000 g. The resulting supernatant (platelet lysate) is used for enzymatic testings.
PDE5A1 activity is inhibited by the compounds of the invention in a modified SPA (scintillation proximity assay) test, supplied by Amersham Biosciences (see procedural instructions “phosphodiesterase [3H]cAMP SPA enzyme assay, code TRKQ 7090”), carried out in 96-well microtitre plates (MTP's). The test volume is 100 μl and contains 20 mM Tris buffer (pH 7.4), 0.1 mg of BSA (bovine serum albumin)/ml, 5 mM Mg^2+, 1 μM motapizone, 10 nM PDE2 inhibitor 2-(3,4-dimethoxybenzyl)-7-[(1R,2R)-2-hydroxy-1-(2-phenylethyl)propyl]-5-methylimidazo[5,1-f][1,2,4]triazin-4(3H)-one, 0.5 μM cGMP (cyclic guanosine monophosphate) (including about 50,000 cpm of [3H]cGMP as a tracer), 1 μl of the respective compound dilution in dimethylsulfoxide (DMSO) and sufficient PDE5-containing platelet lysat (10,000×g supernatant, see above) to ensure that 10-20 wt % of the cGMP is converted under the said experimental conditions. […] After a preincubation of 5 min at 37° C., the reaction is started by adding the substrate (cGMP) and the assay is incubated for a further 15 min; after that, it is stopped by adding SPA beads (50 μl). In accordance with the manufacturer's instructions, the SPA beads had previously been resuspended in water, but are then diluted 1:3 (v/v) in water; the diluted solution also contains 3 mM […] (IBMX) to ensure a complete PDE activity stop. After the beads have been sedimented (>30 min), the MTP's are analyzed in commercially available luminescence detection de-vices. The corresponding IC50 values of the compounds for the inhibition of PDE activity are deter-mined from the concentration-effect curves by means of non-linear regression.
As a reminder, the IC50 is the midpoint of a concentration-inhibition curve. For the compound `C[C@H](O)C(=O)N1CC(NC(=O)c2c[nH]c3c(-c4c(OCC5CC5)ccc5c4OCO5)ncnc23)C1` [Example 196, 4-(5-Cyclopropylmethoxy-benzo[1,3]dioxol-4-yl)-5H-pyrrolo[3,2-d]pyrimidine-7-carboxylic acid [1-((S)-2-hydroxy-propanoyl)azetidin-3-yl]-amide], the IC50 is 0.759 nM. The same measure, in the same setting: as for `C[C@H](O)C(=O)N1CCC(CNC(=O)c2c[nH]c3c(-c4c(OCC5CC5)ccc5c4OCO5)ncnc23)CC1` [Example 187, 4-(5-Cyclopropylmethoxy-benzo[1,3]dioxol-4-yl)-5H-pyrrolo[3,2-d]pyrimidine-7-carboxylic acid [1-((S)-2-hydroxy-propanoyl)piperidin-4-ylmethyl]-amide], the figure is 0.457 nM; as for `Cc1ccc(OCC2CC2)c(-c2ncnc3c(C(=O)N[C@H]4CC[C@H](NC(=O)[C@H](C)O)CC4)c[nH]c23)c1` [Example 244, trans-4-(2-Cyclopropylmethoxy-5-methyl-phenyl)-5H-pyrrolo[3,2-d]pyrimidine-7-carboxylic acid [4-((S)-2-hydroxy-propionylamino)-cyclohexyl]-amide], 1.95 nM. Same read-out and setting: as for `COCCOc1ccc2c(c1-c1ncnc3c(C(=O)N[C@H]4CC[C@@H](NC(C)=O)CC4)c[nH]c13)OCO2` [Example 164, cis-4-[5-(2-Methoxy-ethoxy)-benzo[1,3]dioxol-4-yl]-5H-pyrrolo[3,2-d]pyrimidine-7-carboxylic acid (4-acetylamino-cyclohexyl)-amide], the figure is 7.76 nM; as for `COCC(=O)N1CC[C@@H](NC(=O)c2c[nH]c3c(-c4c(OCC5CC5)ccc5c4OCO5)ncnc23)C1` [Example 13, 4-(5-Cyclopropylmethoxy-benzo[1,3]dioxol-4-yl)-5H-pyrrolo[3,2-d]pyrimidine-7-carboxylic acid [(R)-1-(2-methoxy-acetyl)pyrrolidin-3-yl]-amide], 0.776 nM; as for `COCC(=O)N1CCC(NC(=O)c2c[nH]c3c(-c4ccc(OC)cc4OCC4CC4)ncnc23)CC1` [Example 61, 4-(2-Cyclopropylmethoxy-4-methoxy-phenyl)-5H-pyrrolo[3,2-d]pyrimidine-7-carboxylic acid [1-(2-methoxy-ethanoyl)-piperidin-4-yl]amide], 0.525 nM. The same measure, in the same setting: as for `O=C(NC1CCN(C(=O)CO)CC1)c1c[nH]c2c(-c3cc(F)ccc3OCC3CC3)ncnc12` [Example 220, 4-(2-Cyclopropylmethoxy-5-fluoro-phenyl)-5H-pyrrolo[3,2-d]pyrimidine-7-carboxylic acid [1-(2-hydroxy-acetyl)piperidin-4-yl]-amide], the figure is 7.41 nM; as for `COCCOc1cc(OC)ccc1-c1ncnc2c(C(=O)N[C@H]3CC[C@@H](NC(=O)COC)CC3)c[nH]c12` [Example 154, cis-4-[4-Methoxy-2-(2-methoxy-ethoxy)-phenyl]-5H-pyrrolo[3,2-d]pyrimidine-7-carboxylic acid [4-(2-methoxy-acetylamino)-cyclohexyl]-amide], 17 nM.

As for `COCC(=O)N1CCC(CNC(=O)c2c[nH]c3c(-c4c(OCC5CC5)ccc5c4OCO5)ncnc23)CC1` [Example 26, 4-(5-Cyclopropylmethoxy-benzo[1,3]dioxol-4-yl)-5H-pyrrolo[3,2-d]pyrimidine-7-carboxylic acid [1-(2-methoxy-ethanoyl)-piperidin-4-ylmethyl]-amide], inhibition was half-maximal at 0.457 nM (IC50).

For `O=C(NC1CCN(C(=O)CO)CC1)c1c[nH]c2c(-c3cc(F)c(O)cc3OCC3CC3)ncnc12` [Example 281, 4-(2-Cyclopropylmethoxy-5-fluoro-4-hydroxy-phenyl)-5H-pyrrolo[3,2-d]pyrimidine-7-carboxylic acid [1-(2-hydroxy-acetyl)piperidin-4-yl]-amide], 851 nM corresponded to half-maximal inhibition (IC50). The compound `COCC(=O)N1CCC(NC(=O)c2c[nH]c3c(-c4c(OCC5CCC5)ccc5c4OCO5)ncnc23)CC1` [Example 131, 4-(5-Cyclobutylmethoxy-benzo[1,3]dioxol-4-yl)-5H-pyrrolo[3,2-d]pyrimidine-7-carboxylic acid [1-(2-methoxy-ethanoyl)-piperidin-4-yl]amide] had an IC50 of 0.49 nM. Take `COc1cc(OCC2CC2)c(-c2ncnc3c(C(=O)N[C@H]4CC[C@H](NC(=O)CO)CC4)c[nH]c23)cc1F` [Example 233, trans-4-(2-Cyclopropylmethoxy-5-fluoro-4-methoxy-phenyl)-5H-pyrrolo[3,2-d]pyrimidine-7-carboxylic acid [4-(2-hydroxy-acetylamino)-cyclohexyl]-amide]: the IC50 was 0.759 nM. Still for that read-out and setting: as for `COc1ccc(-c2ncnc3c(C(=O)NC4CCN(C(=O)C5(O)CC5)CC4)c[nH]c23)c(OCC2CC2)c1` [Example 207, 4-(2-Cyclopropylmethoxy-4-methoxy-phenyl)-5H-pyrrolo[3,2-d]pyrimidine-7-carboxylic acid {1-[1-(1-hydroxy-cyclopropyl)-methanoyl]-piperidin-4-yl}-amide], the figure is 0.245 nM.

In the case of `C[C@H](O)C(=O)N[C@H]1CC[C@H](NC(=O)c2c[nH]c3c(-c4ccccc4OCC4CC4)ncnc23)CC1` [Example 225, trans-4-(2-Cyclopropylmethoxy-phenyl)-5H-pyrrolo[3,2-d]pyrimidine-7-carboxylic acid [4-((S)-2-hydroxy-propionylamino)-cyclohexyl]-amide], inhibition was half-maximal at 7.08 nM (IC50). `CCCOc1ccc2c(c1-c1ncnc3c(C(=O)N[C@@H]4CCN(C(=O)OCC)C4)c[nH]c13)OCO2` [Example 142, (R)-3-{[4-(5-Propoxy-benzo[1,3]dioxol-4-yl)-5H-pyrrolo[3,2-d]pyrimidine-7-carbonyl]amino}-pyrrolidine-1-carboxylic acid ethyl ester] showed an IC50 of 0.617 nM. Against the preceding compound, the IC50 is about 11-fold lower.

Turning to “4-({1-[4-(5-Cyclopropylmethoxy-benzo[1,3]dioxol-4-yl)-5H-pyrrolo[3,2-d]pyrimidin-7-yl]-methanoyl}-amino)-piperidine-1-carboxylic acid ethyl ester [Example 2]”, the “-log IC50 (mol/l)” value came out at 10.01. As for `COc1cc(OCC2CC2)c(-c2ncnc3c(C(=O)N[C@@H]4CCN(C(=O)CO)C4)c[nH]c23)cc1F` [Example 241, 4-(2-Cyclopropylmethoxy-5-fluoro-4-methoxy-phenyl)-5H-pyrrolo[3,2-d]pyrimidine-7-carboxylic acid [(R)-1-(2-hydroxy-acetyl)pyrrolidin-3-yl]-amide], the IC50 is 1.35 nM. That is a single-digit nanomolar value. Regarding `CC(=O)c1ccc(OCC2CC2)c(-c2ncnc3c(C(=O)NC4CCN(C(C)=O)CC4)c[nH]c23)c1` [Example 266, 4-(5-Acetyl-2-cyclopropylmethoxy-phenyl)-5H-pyrrolo[3,2-d]pyrimidine-7-carboxylic acid (1-acetyl-piperidin-4-yl)-amide], the IC50 is 0.0794 nM. This IC50 lies about 17-fold lower than the previous one.

As to `COCC(=O)N1CCC(NC(=O)c2c[nH]c3c(-c4cc(C(C)=O)ccc4OCC4CC4)ncnc23)CC1` [Example 265, 4-(5-Acetyl-2-cyclopropylmethoxy-phenyl)-5H-pyrrolo[3,2-d]pyrimidine-7-carboxylic acid [1-(2-methoxy-acetyl)piperidin-4-yl]-amide], half-maximal inhibition (IC50) was put at 0.288 nM. Still for that read-out and setting: as for `COCCOc1cc(OC)ccc1-c1ncnc2c(C(=O)N[C@H]3CC[C@H](NC(=O)COC)CC3)c[nH]c12` [Example 157, trans-4-[4-Methoxy-2-(2-methoxy-ethoxy)-phenyl]-5H-pyrrolo[3,2-d]pyrimidine-7-carboxylic acid [4-(2-methoxy-acetylamino)-cyclohexyl]-amide], the figure is 15.5 nM; as for `CCOC(=O)N1CCC(CNC(=O)c2c[nH]c3c(-c4c(OCC5CC5)ccc5c4OCO5)ncnc23)CC1` [Example 27, 4-[({1-[4-(5-Cyclopropylmethoxy-benzo[1,3]dioxol-4-yl)-5H-pyrrolo[3,2-d]pyrimidin-7-yl]-methanoyl}-amino)-methyl]-piperidine-1-carboxylic acid ethyl ester], 0.372 nM.

Consider `COc1ccc(-c2ncnc3c(C(=O)N[C@H]4CC[C@H](C(=O)NC5CC5)CC4)c[nH]c23)c(OCC2CC2)c1` [Example 271, trans-4-(2-Cyclopropylmethoxy-4-methoxy-phenyl)-5H-pyrrolo[3,2-d]pyrimidine-7-carboxylic acid (4-cyclopropylcarbamoyl-cyclohexyl)-amide], for which the IC50 was 0.55 nM.
